The values below are quoted from earlier work in patent publication US20060111347A1, “Substituted sulfones and methods of use” (AMGEN INC., priority 2004, published 2006).

For this data set the following is noted: degraded by peptidases.

No end group written: not given here.

As for RPPGFSPFR [BK, Bradykinin], the “half-life of BK in plasma” value is on record as “approximately 17 seconds”.
